Test results from article PMC12736018, “Stereoselective Cytotoxicity of Enantiopure 3,3-Dichloro-γ-lactams: Correlating In Vitro Activity with In Vivo Tolerability” (Molecules, 2025).
Values after ≈ are worked out from the molar mass of the structure shown.

Legend:
3T3 cells = experiment: MTT cell viability assay, 3T3; assay type: cell-based; details: Mus musculus, NIH3T3; 3T3, MTT, 24 h
Description: (§1) The murine Swiss albino fibroblast (3T3), the immortal human keratinocyte (HaCaT), the squamous cell carcinoma (A431), the human epithelial carcinoma (HeLa) and the human breast adenocarcinoma (MCF-7) cell lines were sourced from Celltec UB (Barcelona, Spain). All cells were maintained and grown in DMEM medium (4.5 g/L glucose) supplemented with 10% (v/v) FBS, 2 mM L-glutamine, 100 U/mL penicillin and 100 μg/mL streptomycin at 37 °C, 5% CO2. Cells were routinely cultured in 75 cm^2 culture flasks and were trypsinized using trypsin-EDTA when the cells reached approximately 80%. Cell concentration in the resulting suspension was assessed using the trypan blue assay, which enables direct discrimination between viable (unstained) and non-viable (blue) cells.
(§2) T3 and HaCaT cells (1 × 10^5 cells/mL), along with A431, HeLa, and MCF-7 cells (5 × 10^4 cells/mL), were cultured at defined seeding densities in the 60 central wells of a 96-well plate. Cells were first incubated for 24 h under standard incubator conditions (5% CO2, 37 °C). After this period, the culture medium was removed, and the cells were incubated for an additional 24 h with their corresponding compound solutions (1 mg/mL) previously diluted in a minimum amount of DMF (dimethylformamide) and then in DMEM medium supplemented with 5% FBS (100 µL) at the required concentration range (20 to 250 µg/mL). Cell viability following exposure to the lactam derivatives was evaluated using two complementary assays: NRU and MTT.
(§3) Only living cells can reduce the yellow tetrazolium salt 3-(4,5-dimethyl-2-thiazolyl)-2,5-diphenyltetrazolium bromide (MTT) to insoluble purple formazan crystals. After a 24 h incubation of the cells with their corresponding NPs, the medium was removed and 100 µL of MTT (Sigma-Aldrich, St. Louis, MO, USA) in PBS (5 mg/mL) diluted 1:10 in culture medium without phenol red and without FBS (Lonza, Verviers, Belgium) was added to the cells. After 3 h of incubation, the medium was removed. Thereafter, 100 µL of DMSO (Sigma-Aldrich, St. Louis, MO, USA) was added to each well to dissolve the purple formazan crystals. Agitation and absorbance measurements of the extracted solution were carried out under the same conditions described for the NRU assay. The effect of each treatment was then expressed as the percentage of tetrazolium salt reduction by viable cells relative to untreated controls.
(§4) The half-maximal inhibitory concentration (IC50) values for the different formulations, across cell lines and experimental endpoints, were obtained by fitting the concentration-dependent viability curves. […] These findings reflect the very low cytotoxicity of the compounds toward these cell lines.

HaCaT cells = experiment: MTT cell viability assay, HaCaT; assay type: cell-based; details: Homo sapiens, 24 h
Description: as §1, §2, §3, §4

HeLa cells [1] = experiment: MTT cell viability assay, HeLa; assay type: cell-based; details: Homo sapiens, 24 h
Description: as §1, §2, §3, §4

HeLa cells [2] = experiment: NRU cell viability assay, HeLa; assay type: cell-based, human; details: Homo sapiens, 24 h
Description: as §1, §2
The neutral red uptake (NRU) assay is based on the accumulation of dye in the lysosomes of viable cells. After the cells were incubated for 24 h with the corresponding systems, the medium was removed, and the solutions were incubated with the NR dye (Sigma-Aldrich, St. Louis, MO, USA) solution (50 µg/mL) dissolved in the medium, without FBS and without phenol red (Lonza, Verviers, Belgium), for 3 h. Cells were then washed with sterile PBS, followed by the addition of 100 µL of a solution containing 50% absolute ethanol and 1% acetic acid in distilled water to extract the dye. To promote the total dissolution of the dye, plates were placed in a microtiter-plate shaker for 5 min at room temperature. The absorbance of the resulting solutions was measured at 550 nm (Bio-Rad 550 microplate reader, Bio-Rad California, Hercules, CA, USA). Finally, the effect of each treatment was calculated as the percentage of dye uptake by viable cells relative to the control cells (cells without any treatment). Finally, the effect of each treatment was calculated as the percentage of dye retained by viable cells compared with untreated control cells.
as §4

zebrafish embryos = experiment: Touch-evoked response (TER) test; assay type: in vivo; details: 72 hpf, after 2 h washout
Description: Adult zebrafish, both male and female, were procured from a commercial supplier (Pisciber, Barcelona, Spain) and housed in a closed flow-through system with standardized dilution water, as specified in ISO 7346-1 [16] (2 mM CaCl2·2H2O; 0.5 mM MgSO4·7H2O; 0.75 mM NaHCO3; 0.07 mM KCl). The fish were maintained at a temperature of 26 ± 1 °C on a 14 h light and 10 h dark cycle and were daily fed in the morning with Artemia salina, and with commercial flake food in the afternoon (SDS400, Special Diet Services, Dietex, France). The day before eggs were needed, males and females were placed in a breeding tank with plants at a 2:1 male-to-female ratio. The following morning, eggs were collected 30 min after the lights were turned on. […]
At 72 hpf, test solutions were replaced with 0.3× Danieau’s solution without the chemical and incubated at 27 °C ± 1 °C for 2 h. […] In brief, videos were recorded using a Casio Exilim EX-ZR200 video camera (Tokyo, Japan) and the distance swam by zebrafish embryos was measured after three mechanical stimuli, applied to the tail with a forceps tip (Fine Science Tools, Dumont #5, Foster City, CA, USA) at 10 s intervals. […] Six larvae per concentration group were evaluated in at least three independent experiments.
Statistical analysis was performed using GraphPad Prism v.10.0.2. TER test was analyzed using one-way ANOVA and the post-hoc multiple-comparison Dunnett test. […]

Compound | IC50 (3T3 cells) | IC50 (HaCaT cells) | IC50 (HeLa cells [1]) | IC50 (HeLa cells [2]) | concentration from which a statistically significant adverse effect was observed in the TER (zebrafish embryos)
C[C@H](c1ccccc1)N1C[C@H](C)C(Cl)(Cl)C1=O [Compound 4] | 94.6 µg/mL (≈ 348 µM) | 57.3 µg/mL (≈ 210 µM) | 94.3 µg/mL (≈ 346 µM) | 77.5 µg/mL (≈ 285 µM) | ≥ 7800 ng/mL
C[C@@H]1CN([C@@H](C)c2ccccc2)C(=O)C1(Cl)Cl [Compound 3, (R)-3,3-dichloro-4-methyl-1-((S)-1-phenylethyl)pyrrolidin-2-one] | 30 µg/mL (≈ 110 µM) | 122 µg/mL (≈ 450 µM) | 184 µg/mL (≈ 675 µM) | 160 µg/mL (≈ 588 µM) | ≥ 7800 ng/mL
